Assay results: ChEMBL document CHEMBL3046161, “Synthesis of potential antitubercular and antimicrobial s-triazine-based scaffolds via Suzuki cross-coupling reaction” (2013)
Values after ≈ are worked out from the molar mass of the structure shown.

Assays:
Assay type in all cases: functional
Proteus vulgaris [1] = assay: Antibacterial activity against Proteus vulgaris MTCC 1771 assessed as growth inhibition at 3.12 to 50 ug/mL after 24 hr by agar disk diffusion method
Escherichia coli [2] = assay: Antibacterial activity against Escherichia coli MTCC 739 assessed as growth inhibition after 24 hr by agar streak dilution method; conditions: MTCC 739, 24 h
Bacillus cereus [3] = assay: Antibacterial activity against Bacillus cereus MTCC 430 assessed as growth inhibition at 3.12 to 50 ug/mL after 24 hr by agar disk diffusion method
[4] = tested on: Mycobacterium tuberculosis; assay: Antimycobacterial activity against Mycobacterium tuberculosis H37Rv assessed as growth inhibition after 12 to 28 days by Lowenstein and Jensen agar dilution method
Aspergillus clavatus [5] = assay: Antifungal activity against Aspergillus clavatus MTCC 1323 assessed as growth inhibition after 48 hr by agar streak dilution method; conditions: MTCC 1323, 48 h
Aspergillus clavatus [6] = assay: Antifungal activity against Aspergillus clavatus MTCC 1323 assessed as growth inhibition at 3.12 to 50 ug/mL after 24 hr by agar disk diffusion method
Klebsiella pneumoniae [7] = assay: Antibacterial activity against Klebsiella pneumoniae MTCC 109 assessed as growth inhibition at 3.12 to 50 ug/mL after 24 hr by agar disk diffusion method
Shigella flexneri [8] = assay: Antibacterial activity against Shigella flexneri MTCC 1457 assessed as growth inhibition after 24 hr by agar streak dilution method; conditions: MTCC 1457, 24 h
Aspergillus niger [9] = assay: Antifungal activity against Aspergillus niger MTCC 282 assessed as growth inhibition at 3.12 to 50 ug/mL after 24 hr by agar disk diffusion method
Pseudomonas aeruginosa [10] = assay: Antibacterial activity against Pseudomonas aeruginosa MTCC 741 assessed as growth inhibition at 3.12 to 50 ug/mL after 24 hr by agar disk diffusion method
Aspergillus niger [11] = assay: Antifungal activity against Aspergillus niger MTCC 282 assessed as growth inhibition after 48 hr by agar streak dilution method; conditions: MTCC 282, 48 h
Klebsiella pneumoniae [12] = assay: Antibacterial activity against Klebsiella pneumoniae MTCC 109 assessed as growth inhibition after 24 hr by agar streak dilution method; conditions: MTCC 109, 24 h
Salmonella typhi [13] = assay: Antibacterial activity against Salmonella enterica subsp. enterica serovar Typhi MTCC 733 assessed as growth inhibition after 24 hr by agar streak dilution method; conditions: MTCC 733, 24 h
Aspergillus fumigatus [14] = assay: Antifungal activity against Aspergillus fumigatus MTCC 343 assessed as growth inhibition after 48 hr by agar streak dilution method; conditions: MTCC 343, 48 h
Pseudomonas aeruginosa [15] = assay: Antibacterial activity against Pseudomonas aeruginosa MTCC 741 assessed as growth inhibition after 24 hr by agar streak dilution method; conditions: MTCC 741, 24 h
Bacillus cereus [16] = assay: Antibacterial activity against Bacillus cereus MTCC 430 assessed as growth inhibition after 24 hr by agar streak dilution method; conditions: MTCC 430, 24 h
Candida albicans [17] = assay: Antifungal activity against Candida albicans MTCC 183 assessed as growth inhibition at 3.12 to 50 ug/mL after 24 hr by agar disk diffusion method
Staphylococcus aureus [18] = assay: Antibacterial activity against Staphylococcus aureus MTCC 96 assessed as growth inhibition at 3.12 to 50 ug/mL after 24 hr by agar disk diffusion method
Salmonella typhi [19] = assay: Antibacterial activity against Salmonella enterica subsp. enterica serovar Typhi MTCC 733 assessed as growth inhibition at 3.12 to 50 ug/mL after 24 hr by agar disk diffusion method
Proteus vulgaris [20] = assay: Antibacterial activity against Proteus vulgaris MTCC 1771 assessed as growth inhibition after 24 hr by agar streak dilution method; conditions: MTCC 1771, 24 h
[21] = tested on: Mycobacterium tuberculosis; assay: Antimycobacterial activity against Mycobacterium tuberculosis H37Rv assessed as growth inhibition measured within 10 days by BACTEC MGIT method; conditions: 240 h
Escherichia coli [22] = assay: Antibacterial activity against Escherichia coli MTCC 739 assessed as growth inhibition at 3.12 to 50 ug/mL after 24 hr by agar disk diffusion method
[23] = tested on: Mycobacterium tuberculosis; assay: Antimycobacterial activity against Mycobacterium tuberculosis H37Rv assessed as growth inhibition at MIC after 12 to 28 days by Lowenstein and Jensen agar dilution method
Shigella flexneri [24] = assay: Antibacterial activity against Shigella flexneri MTCC 1457 assessed as growth inhibition at 3.12 to 50 ug/mL after 24 hr by agar disk diffusion method
Aspergillus fumigatus [25] = assay: Antifungal activity against Aspergillus fumigatus MTCC 343 assessed as growth inhibition at 3.12 to 50 ug/mL after 24 hr by agar disk diffusion method
Staphylococcus aureus [26] = assay: Antibacterial activity against Staphylococcus aureus MTCC 96 assessed as growth inhibition after 24 hr by agar streak dilution method; conditions: MTCC 96, 24 h
Candida albicans [27] = assay: Antifungal activity against Candida albicans MTCC 183 assessed as growth inhibition after 48 hr by agar streak dilution method; conditions: MTCC 183, 48 h

Structure (SMILES) | inhibition zone (IZ) (Proteus vulgaris [1]) [mm] | MIC (Escherichia coli [2]) [µg/mL] | inhibition zone (IZ) (Bacillus cereus [3]) [mm] | MIC [4] [µg/mL] | MIC (Aspergillus clavatus [5]) [µg/mL] | inhibition zone (IZ) (Aspergillus clavatus [6]) [mm] | inhibition zone (IZ) (Klebsiella pneumoniae [7]) [mm] | MIC (Shigella flexneri [8]) [µg/mL] | inhibition zone (IZ) (Aspergillus niger [9]) [mm] | inhibition zone (IZ) (Pseudomonas aeruginosa [10]) [mm] | MIC (Aspergillus niger [11]) [µg/mL] | MIC (Klebsiella pneumoniae [12]) [µg/mL] | MIC (Salmonella typhi [13]) [µg/mL] | MIC (Aspergillus fumigatus [14]) [µg/mL] | MIC (Pseudomonas aeruginosa [15]) [µg/mL] | MIC (Bacillus cereus [16]) [µg/mL] | inhibition zone (IZ) (Candida albicans [17]) [mm] | inhibition zone (IZ) (Staphylococcus aureus [18]) [mm] | inhibition zone (IZ) (Salmonella typhi [19]) [mm] | MIC (Proteus vulgaris [20]) [µg/mL] | further results
CCOc1ccc(NC(=O)CNc2ccc(-c3nc(N4CC(C)CC(C)C4)nc(N4CC(C)CC(C)C4)n3)cc2)cc1 (stereo not drawn) | 25 | 12.5 (≈ 21.9 µM) | 20 | 25 (≈ 43.7 µM) | 50 (≈ 87.4 µM) | 14 | <10 | 25 (≈ 43.7 µM) | 19 | 16 | 25 (≈ 43.7 µM) | 50 (≈ 87.4 µM) | 25 (≈ 43.7 µM) | > 50 | 50 (≈ 87.4 µM) | 50 (≈ 87.4 µM) | 24 | 19 | 21 | 12.5 (≈ 21.9 µM) | MIC [21]: > 6.25 µg/mL; inhibition zone (IZ) (Escherichia coli [22]): 24 mm; growth inhibition (GI) [23]: 98%; inhibition zone (IZ) (Shigella flexneri [24]): 22 mm; inhibition zone (IZ) (Aspergillus fumigatus [25]): <10 mm; MIC (Staphylococcus aureus [26]): 25 µg/mL (≈ 43.7 µM); MIC (Candida albicans [27]): 25 µg/mL (≈ 43.7 µM)
CC(=O)Nc1ccc(NC(=O)CNc2ccc(-c3nc(N4CC(C)CC(C)C4)nc(N4CC(C)CC(C)C4)n3)cc2)cc1 (stereo not drawn) | 27 | 50 (≈ 85.5 µM) | 12 | 62.5 (≈ 107 µM) | 50 (≈ 85.5 µM) | 19 | <10 | 50 (≈ 85.5 µM) | 22 | 19 | 12.5 (≈ 21.4 µM) | 50 (≈ 85.5 µM) | 50 (≈ 85.5 µM) | 50 (≈ 85.5 µM) | 50 (≈ 85.5 µM) | 50 (≈ 85.5 µM) | 17 | <10 | <10 | 6.25 (≈ 10.7 µM) | MIC [21]: > 6.25 µg/mL; inhibition zone (IZ) (Escherichia coli [22]): 20 mm; growth inhibition (GI) [23]: 95%; inhibition zone (IZ) (Shigella flexneri [24]): 16 mm; inhibition zone (IZ) (Aspergillus fumigatus [25]): 12 mm; MIC (Staphylococcus aureus [26]): 50 µg/mL (≈ 85.5 µM); MIC (Candida albicans [27]): 50 µg/mL (≈ 85.5 µM)
CC1CC(C)CN(c2nc(-c3ccc(NCC(=O)Nc4nc5ccccc5s4)cc3)nc(N3CC(C)CC(C)C3)n2)C1 (stereo not drawn) | 18 | 50 (≈ 85.5 µM) | 14 | 500 (≈ 855 µM) | > 50 | <10 | <10 | 50 (≈ 85.5 µM) | <10 | 16 | 50 (≈ 85.5 µM) | 50 (≈ 85.5 µM) | 50 (≈ 85.5 µM) | > 50 | 50 (≈ 85.5 µM) | 50 (≈ 85.5 µM) | <10 | 16 | 12 | 50 (≈ 85.5 µM) | MIC [21]: > 6.25 µg/mL; inhibition zone (IZ) (Escherichia coli [22]): 14 mm; growth inhibition (GI) [23]: 94%; inhibition zone (IZ) (Shigella flexneri [24]): <10 mm; inhibition zone (IZ) (Aspergillus fumigatus [25]): <10 mm; MIC (Staphylococcus aureus [26]): 50 µg/mL (≈ 85.5 µM); MIC (Candida albicans [27]): > 50 µg/mL
CC1CC(C)CN(c2nc(-c3ccc(NCC(=O)Nc4ccc(F)cc4)cc3)nc(N3CC(C)CC(C)C3)n2)C1 (stereo not drawn) | 16 | 25 (≈ 45.8 µM) | 22 | 25 (≈ 45.8 µM) | 50 (≈ 91.6 µM) | 13 | 21 | 12.5 (≈ 22.9 µM) | 18 | 27 | 50 (≈ 91.6 µM) | 50 (≈ 91.6 µM) | 25 (≈ 45.8 µM) | 50 (≈ 91.6 µM) | 12.5 (≈ 22.9 µM) | 25 (≈ 45.8 µM) | 15 | 20 | 21 | 50 (≈ 91.6 µM) | MIC [21]: > 6.25 µg/mL; inhibition zone (IZ) (Escherichia coli [22]): 20 mm; growth inhibition (GI) [23]: 97%; inhibition zone (IZ) (Shigella flexneri [24]): 25 mm; inhibition zone (IZ) (Aspergillus fumigatus [25]): 22 mm; MIC (Staphylococcus aureus [26]): 12.5 µg/mL (≈ 22.9 µM); MIC (Candida albicans [27]): 50 µg/mL (≈ 91.6 µM)
